Results: ChEMBL document CHEMBL4334438, “Discovery of novel glycogen synthase kinase-3α inhibitors: Structure-based virtual screening, preliminary SAR and biological evaluation for treatment of acute myeloid leukemia” (Eur J Med Chem, 2019)

Tests used:
[1] = target: Ephrin type-B receptor 1 (Homo sapiens) (UniProt P54762); assay: Inhibition of recombinant human EphB1 (564 to end residues) assessed as residual activity at 1 uM using KVEKIGEGTYGVVYK as substrate at 40 mins in presence of [gamma-33ATP] by scintillation counting based radiometry assay relative to control
[2] = target: SRSF protein kinase 1 (Homo sapiens) (UniProt Q96SB4); assay: Inhibition of human SRPK1 (2 to end residues) assessed as residual activity at 1 uM using RSRSRSRSRSRSRSR as substrate measured after 40 mins in presence of [gamma33P]ATP by scintillation counting method relative to control
[3] = target: Ribosomal protein S6 kinase alpha-2 (Homo sapiens) (UniProt Q15349); assay: Inhibition of recombinant full length human Rsk3 assessed as residual activity at 1 uM using KKKNRTLSVA as substrate measured after 40 mins in presence of [gamma33P]ATP by scintillation counting method relative to control
[4] = target: Activated CDC42 kinase 1 (Homo sapiens) (UniProt Q07912); assay: Inhibition of human ACK1 (1 to 389 residues) assessed as residual activity at 1 uM using EFPIYDFLPAKKK as substrate incubated for 40 mins in presence of [gamma-33ATP] by scintillation counting based radiometry assay relative to control
[5] = target: Tyrosine-protein kinase HCK (Homo sapiens) (UniProt P08631); assay: Inhibition of human HCK activated (230 to 497 residues) assessed as residual activity at 1 uM using GGMEDIYFEFMGGKKK as substrate after 40 mins by [gamma-33ATP] radiometric assay relative to control
[6] = target: Serine/threonine-protein kinase MRCK beta (Homo sapiens) (UniProt Q9Y5S2); assay: Inhibition of recombinant human MRCKbeta (1 to 473 residues) assessed as residual activity at 1 uM using KKRNRTLTV as substrate measured after 40 mins in presence of [gamma33P]ATP by scintillation counting method relative to control
[7] = target: Ribosomal protein S6 kinase alpha-1 (Homo sapiens) (UniProt Q15418); assay: Inhibition of recombinant full length human Rsk1 assessed as residual activity at 1 uM using KKKNRTLSVA as substrate measured after 40 mins in presence of [gamma33P]ATP by scintillation counting method relative to control
[8] = target: Tyrosine-protein kinase JAK3 (Homo sapiens) (UniProt P52333); assay: Inhibition of human JAK3 (781 to end residues) assessed as residual activity at 1 uM using GGEEEEYFELVKKKK as substrate after 40 mins by [gamma-33ATP] radiometric assay relative to control
[9] = target: Tyrosine-protein kinase Yes (Homo sapiens) (UniProt P07947); assay: Inhibition of recombinant full-length human Yes at 1 uM assessed as residual activity at 1 uM using poly(Glu, Tyr) 4:1 as substrate measured after 40 mins in presence of [gamma33P]ATP by scintillation counting method relative to control
[10] = target: Serine/threonine-protein kinase Nek3 (Homo sapiens) (UniProt P51956); assay: Inhibition of recombinant full-length human NEK3 assessed as residual activity at 1 uM using myelin basic protein as substrate measured after 40 mins in presence of [gamma33P]ATP by scintillation counting method relative to control
[11] = target: Casein kinase 2 (Homo sapiens) (UniProt P67870+P68400+P19784+Q8NEV1); assay: Inhibition of recombinant human CK2 assessed as residual activity at 1 uM in presence of [gamma-33ATP] by scintillation counting based radiometry assay relative to control; type: protein assay
[12] = target: Homeodomain-interacting protein kinase 1 (Homo sapiens) (UniProt Q86Z02); assay: Inhibition of human HIPK1 (158 to 555 residues) assessed as residual activity at 1 uM using myelin basic protein as substrate after 40 mins by [gamma-33ATP] radiometric assay relative to control
[13] = target: Fibroblast growth factor receptor 4 (Homo sapiens) (UniProt P22455); assay: Inhibition of recombinant human FGFR4 (442 to 755 residues) assessed as residual activity at 1 uM using poly(Glu, Tyr) 4:1 as substrate at 40 mins in presence of [gamma-33ATP] by scintillation counting based radiometry assay relative to control
[14] = target: Tyrosine-protein kinase receptor TYRO3 (Homo sapiens) (UniProt Q06418); assay: Inhibition of recombinant human RSE (451 to end residues) assessed as residual activity at 1 uM using KVEKIGEGTYGVVYK as substrate measured after 40 mins in presence of [gamma33P]ATP by scintillation counting method relative to control
[15] = target: Leucine-rich repeat serine/threonine-protein kinase 2 (Homo sapiens) (UniProt Q5S007); assay: Inhibition of recombinant human LRRK2 (970 to end residues) assessed as residual activity at 1 uM using RLGRDKYKTLRQIRQ as substrate after 40 mins in presence of [gamma-33ATP] by scintillation counting based radiometry assay relative to control
[16] = target: Ephrin type-B receptor 3 (Homo sapiens) (UniProt P54753); assay: Inhibition of recombinant human EphB3 (599 to 920 residues) assessed as residual activity at 1 uM using poly(Glu, Tyr) 4:1 as substrate at 40 mins in presence of [gamma-33ATP] by scintillation counting based radiometry assay relative to control
[17] = target: Serine/threonine-protein kinase NIM1 (Homo sapiens) (UniProt Q8IY84); assay: Inhibition of recombinant full length human NIM1 assessed as residual activity at 1 uM using KKKVSRSGLYRSPSMPENLNRPR as substrate measured after 40 mins in presence of [gamma33P]ATP by scintillation counting method relative to control
[18] = target: Ribosomal protein S6 kinase alpha-4 (Homo sapiens) (UniProt O75676); assay: Inhibition of recombinant human MSK2 (2 to end residues) assessed as residual activity at 1 uM using GRPRTSSFAEGKK as substrate measured after 40 mins in presence of [gamma33P]ATP by scintillation counting method relative to control
[19] = target: Serine/threonine-protein kinase MRCK alpha (Homo sapiens) (UniProt Q5VT25); assay: Inhibition of recombinant human MRCKalpha (1 to 473 residues) assessed as residual activity at 1 uM using KKRNRTLTV as substrate measured after 40 mins in presence of [gamma33P]ATP by scintillation counting method relative to control
[20] = target: Eukaryotic translation initiation factor 2-alpha kinase 1 (Homo sapiens) (UniProt Q9BQI3); assay: Inhibition of human HRI (140 to end residues) assessed as residual activity at 1 uM using RSRSRSRSRSRSRSR as substrate after 120 mins by [gamma-33ATP] radiometric assay relative to control
[21] = test system: Epidermal growth factor receptor (Homo sapiens), P00533 [T790M]; assay: Inhibition of recombinant human EGFR T790M mutant (696 to end residues) assessed as residual activity at 1 uM using poly(Glu, Tyr) 4:1 as substrate at 40 mins in presence of [gamma-33ATP] by scintillation counting based radiometry assay relative to control

Leucine-rich repeat serine/threonine-protein kinase 2 (Homo sapiens), sequence (Q5S007 whole entry, the tested form may be a part): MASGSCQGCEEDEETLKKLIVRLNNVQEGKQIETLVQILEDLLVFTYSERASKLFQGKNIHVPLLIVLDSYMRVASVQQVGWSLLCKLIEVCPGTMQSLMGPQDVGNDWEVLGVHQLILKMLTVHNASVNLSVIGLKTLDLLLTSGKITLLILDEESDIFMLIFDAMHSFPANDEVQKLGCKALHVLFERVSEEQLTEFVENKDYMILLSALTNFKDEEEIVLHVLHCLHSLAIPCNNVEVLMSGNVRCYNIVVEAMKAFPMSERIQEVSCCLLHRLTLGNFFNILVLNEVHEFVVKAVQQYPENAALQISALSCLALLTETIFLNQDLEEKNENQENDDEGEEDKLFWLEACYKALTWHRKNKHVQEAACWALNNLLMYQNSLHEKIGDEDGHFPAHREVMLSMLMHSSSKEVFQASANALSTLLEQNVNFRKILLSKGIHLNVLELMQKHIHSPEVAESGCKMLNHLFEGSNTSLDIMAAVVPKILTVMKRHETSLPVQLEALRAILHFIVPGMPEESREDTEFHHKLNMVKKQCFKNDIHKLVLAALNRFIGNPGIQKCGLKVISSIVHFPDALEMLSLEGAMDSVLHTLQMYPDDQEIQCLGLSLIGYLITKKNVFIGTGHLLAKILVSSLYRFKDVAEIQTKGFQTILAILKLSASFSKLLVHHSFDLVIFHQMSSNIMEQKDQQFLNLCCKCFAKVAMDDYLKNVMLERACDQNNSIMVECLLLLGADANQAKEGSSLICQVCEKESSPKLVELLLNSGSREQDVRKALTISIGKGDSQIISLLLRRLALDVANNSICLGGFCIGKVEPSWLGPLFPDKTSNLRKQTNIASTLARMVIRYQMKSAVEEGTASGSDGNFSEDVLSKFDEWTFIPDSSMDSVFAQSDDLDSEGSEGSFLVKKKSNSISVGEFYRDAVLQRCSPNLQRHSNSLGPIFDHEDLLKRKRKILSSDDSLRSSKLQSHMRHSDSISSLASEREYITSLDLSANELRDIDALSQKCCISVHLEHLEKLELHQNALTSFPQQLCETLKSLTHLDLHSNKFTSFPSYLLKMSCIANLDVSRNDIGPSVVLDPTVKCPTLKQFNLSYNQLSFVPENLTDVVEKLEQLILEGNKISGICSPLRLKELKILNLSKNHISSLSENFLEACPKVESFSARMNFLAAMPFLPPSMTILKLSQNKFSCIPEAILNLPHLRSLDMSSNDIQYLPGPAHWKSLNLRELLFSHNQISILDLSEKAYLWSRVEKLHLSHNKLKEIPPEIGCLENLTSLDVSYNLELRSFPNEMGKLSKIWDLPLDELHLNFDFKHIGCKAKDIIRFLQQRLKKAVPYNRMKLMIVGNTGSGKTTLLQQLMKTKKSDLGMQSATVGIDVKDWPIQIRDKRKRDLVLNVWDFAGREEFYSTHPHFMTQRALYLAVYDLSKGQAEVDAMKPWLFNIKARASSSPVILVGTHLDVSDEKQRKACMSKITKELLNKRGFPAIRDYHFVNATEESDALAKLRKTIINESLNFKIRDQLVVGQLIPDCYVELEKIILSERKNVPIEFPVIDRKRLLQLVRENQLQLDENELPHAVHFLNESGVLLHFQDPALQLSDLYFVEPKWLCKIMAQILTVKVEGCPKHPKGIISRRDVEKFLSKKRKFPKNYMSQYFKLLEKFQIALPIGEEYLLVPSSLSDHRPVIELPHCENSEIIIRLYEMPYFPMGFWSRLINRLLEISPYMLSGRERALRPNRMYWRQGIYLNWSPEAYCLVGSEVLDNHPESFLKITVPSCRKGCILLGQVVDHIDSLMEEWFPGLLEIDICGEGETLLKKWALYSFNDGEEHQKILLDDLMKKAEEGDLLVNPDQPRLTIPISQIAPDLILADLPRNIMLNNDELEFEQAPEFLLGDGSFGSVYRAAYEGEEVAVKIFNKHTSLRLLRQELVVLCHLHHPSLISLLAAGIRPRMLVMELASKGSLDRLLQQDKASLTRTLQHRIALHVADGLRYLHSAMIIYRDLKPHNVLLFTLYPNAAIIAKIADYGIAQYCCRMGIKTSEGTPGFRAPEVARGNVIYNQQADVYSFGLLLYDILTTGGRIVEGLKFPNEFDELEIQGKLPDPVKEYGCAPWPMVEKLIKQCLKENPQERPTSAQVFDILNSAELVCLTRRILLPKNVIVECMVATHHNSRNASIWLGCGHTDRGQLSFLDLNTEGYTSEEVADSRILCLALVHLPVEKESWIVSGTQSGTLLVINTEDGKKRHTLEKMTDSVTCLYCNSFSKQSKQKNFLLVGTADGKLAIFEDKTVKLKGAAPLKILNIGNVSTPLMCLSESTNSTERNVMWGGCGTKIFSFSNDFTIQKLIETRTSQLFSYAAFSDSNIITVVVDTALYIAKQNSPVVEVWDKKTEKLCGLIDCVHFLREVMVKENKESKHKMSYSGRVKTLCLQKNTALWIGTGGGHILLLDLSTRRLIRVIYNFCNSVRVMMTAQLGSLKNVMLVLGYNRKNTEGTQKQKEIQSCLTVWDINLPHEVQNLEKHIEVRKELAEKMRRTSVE
SRSF protein kinase 1 (Homo sapiens), sequence (Q96SB4 whole entry): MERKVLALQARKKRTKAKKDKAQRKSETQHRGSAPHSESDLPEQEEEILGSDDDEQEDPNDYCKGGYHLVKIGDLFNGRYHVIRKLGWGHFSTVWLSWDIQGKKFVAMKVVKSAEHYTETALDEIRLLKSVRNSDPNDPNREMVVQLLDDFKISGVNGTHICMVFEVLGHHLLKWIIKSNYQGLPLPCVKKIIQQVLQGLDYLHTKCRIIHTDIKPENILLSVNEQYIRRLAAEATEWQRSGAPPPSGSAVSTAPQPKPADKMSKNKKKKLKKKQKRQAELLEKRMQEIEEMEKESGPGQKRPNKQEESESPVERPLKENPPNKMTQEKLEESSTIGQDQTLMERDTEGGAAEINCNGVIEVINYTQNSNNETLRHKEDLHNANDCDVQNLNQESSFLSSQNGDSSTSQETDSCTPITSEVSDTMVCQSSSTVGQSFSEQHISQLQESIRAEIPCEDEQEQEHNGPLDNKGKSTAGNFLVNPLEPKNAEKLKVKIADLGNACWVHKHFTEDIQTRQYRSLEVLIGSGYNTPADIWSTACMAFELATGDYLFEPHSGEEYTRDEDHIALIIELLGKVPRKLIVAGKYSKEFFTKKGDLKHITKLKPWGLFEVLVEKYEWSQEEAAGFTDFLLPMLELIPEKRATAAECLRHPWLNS
Ephrin type-B receptor 1 (Homo sapiens), sequence (P54762 whole entry): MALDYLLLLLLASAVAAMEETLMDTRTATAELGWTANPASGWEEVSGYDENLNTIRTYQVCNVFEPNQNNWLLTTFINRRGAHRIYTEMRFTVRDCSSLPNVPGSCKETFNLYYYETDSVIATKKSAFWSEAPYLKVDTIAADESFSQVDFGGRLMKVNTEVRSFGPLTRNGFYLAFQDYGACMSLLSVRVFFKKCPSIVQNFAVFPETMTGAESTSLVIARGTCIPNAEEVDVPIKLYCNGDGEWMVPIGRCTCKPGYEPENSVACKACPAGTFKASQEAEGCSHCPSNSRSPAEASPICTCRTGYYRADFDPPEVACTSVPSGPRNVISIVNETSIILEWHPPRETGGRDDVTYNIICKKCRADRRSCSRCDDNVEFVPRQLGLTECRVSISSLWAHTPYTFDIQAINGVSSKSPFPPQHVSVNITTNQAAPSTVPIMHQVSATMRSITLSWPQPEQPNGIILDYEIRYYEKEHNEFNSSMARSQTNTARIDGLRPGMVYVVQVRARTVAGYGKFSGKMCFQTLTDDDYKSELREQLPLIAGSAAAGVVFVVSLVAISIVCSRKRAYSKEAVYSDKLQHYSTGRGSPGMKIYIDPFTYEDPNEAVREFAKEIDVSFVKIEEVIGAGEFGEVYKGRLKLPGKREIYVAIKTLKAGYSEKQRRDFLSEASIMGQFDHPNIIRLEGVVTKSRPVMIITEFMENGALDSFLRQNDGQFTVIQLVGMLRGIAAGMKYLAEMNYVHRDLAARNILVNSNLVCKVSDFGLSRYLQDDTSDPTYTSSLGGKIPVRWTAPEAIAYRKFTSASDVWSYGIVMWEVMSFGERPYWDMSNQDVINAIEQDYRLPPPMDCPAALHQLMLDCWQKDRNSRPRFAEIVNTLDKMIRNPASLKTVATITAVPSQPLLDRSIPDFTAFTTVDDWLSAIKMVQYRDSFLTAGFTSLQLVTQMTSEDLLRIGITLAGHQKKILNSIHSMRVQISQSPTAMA
Ribosomal protein S6 kinase alpha-4 (Homo sapiens), sequence (O75676 whole entry, looked up, the tested form may be a part): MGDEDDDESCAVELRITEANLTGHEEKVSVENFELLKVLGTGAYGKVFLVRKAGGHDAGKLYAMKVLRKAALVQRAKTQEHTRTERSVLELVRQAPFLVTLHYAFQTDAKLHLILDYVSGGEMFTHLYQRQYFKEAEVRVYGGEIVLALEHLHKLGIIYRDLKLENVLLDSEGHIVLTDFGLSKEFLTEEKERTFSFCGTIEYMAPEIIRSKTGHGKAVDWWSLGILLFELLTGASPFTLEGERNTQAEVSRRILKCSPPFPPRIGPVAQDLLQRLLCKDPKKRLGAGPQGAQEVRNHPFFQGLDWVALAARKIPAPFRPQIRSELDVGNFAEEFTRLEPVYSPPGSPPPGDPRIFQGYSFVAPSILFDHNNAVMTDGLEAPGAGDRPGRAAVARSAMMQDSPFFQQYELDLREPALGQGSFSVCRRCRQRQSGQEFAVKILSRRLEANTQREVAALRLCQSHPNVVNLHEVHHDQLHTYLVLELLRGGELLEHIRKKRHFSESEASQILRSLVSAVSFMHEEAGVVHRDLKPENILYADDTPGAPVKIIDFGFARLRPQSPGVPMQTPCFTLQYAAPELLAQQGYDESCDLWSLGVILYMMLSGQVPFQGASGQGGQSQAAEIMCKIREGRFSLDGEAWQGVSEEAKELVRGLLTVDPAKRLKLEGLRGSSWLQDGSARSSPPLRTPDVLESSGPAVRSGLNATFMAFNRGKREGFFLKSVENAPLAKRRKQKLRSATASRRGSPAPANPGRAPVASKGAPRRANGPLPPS

| SMILES | Activity [1] | Activity [2] | Activity [3] | Activity [4] | Activity [5] | Activity [6] | Activity [7] | Activity [8] | Activity [9] | Activity [10] | Activity [11] | Activity [12] | Activity [13] | Activity [14] | Activity [15] | Activity [16] | Activity [17] | Activity [18] | Activity [19] | Activity [20] | further results |
| --- | --- | --- | --- | --- | --- | --- | --- | --- | --- | --- | --- | --- | --- | --- | --- | --- | --- | --- | --- | --- | --- |
| N=C1NC(=O)/C(=C\c2ccc(-c3cccc([N+](=O)[O-])c3)o2)S1 | 115% | 94% | 96% | 93% | 80% | 94% | 105% | 102% | 76% | 89% | 43% | 3% | 106% | 110% | 99% | 106% | 101% | 97% | 103% | 96% | Activity [21]: 101% |
| C=CCOC(=O)c1cc(-c2ccc(/C=C3/NC(=S)NC3=O)o2)ccc1Cl | 102% | 104% | 112% | 96% | 103% | 110% | 90% | 104% | 90% | 94% | 58% | 5% | 95% | 100% | 100% | 104% | 95% | 103% | 98% | 101% | Activity [21]: 90% |
